Assay results from patent publication US20120302566A1, “INDANYLOXYDIHYDROBENZOFURANYLACETIC ACIDS” (BOEHRINGER INGELHEIM INTERNATIONAL GMBH, priority 2010, published 2012).

Key:
human GPR40 receptor [1] = target: T1, human GPR40 receptor (Homo sapiens, UniProt O14842); assay: Cytosolic calcium measurement using the FLIPR system; assay type: cell-based; conditions: FLIPR cytosolic Ca2+ peak height; 1321N1 cells stably expressing human GPR40; read-out: EC50 values on GPR40 determined as described in (A)
Description: (A) Cytosolic calcium measurement using the FLIPR system—1321N1 cells stably expressing human GPR40 receptor (Euroscreen, Belgium) were seeded 24 h before the assay in black clear-bottom collagen-coated 384-well plates in culture medium containing 10% FCS, 1% Na-Pyruvate and 400 μg/ml G418. On the assay day, wells were washed twice with 100 μL Krebs Ringer Buffer (KRB) containing 15 mM sodium hydrogencarbonate and 30 mM Hepes leaving 20 μl rest volume per well. Prior to stimulation the cells were loaded with the Ca^2+-sensitive fluorescent dye from the Calcium4 Assay Kit™ according to the Manufacturer's description (MDS Analytical technologies, Ismaning, Germany) for 80 min at room temperature in the dark, in the presence of 4 mM probenicid. Changes in cytosolic Ca^2+ concentration upon compound addition were monitored using a FLIPR Tetra device (Fluorescence Imaging Plate Reader; MDS Analytical technologies). The peak height of the obtained fluorescence signal was then used to calculate the EC50 values using GraphPad Prism 5 (Graphpad Software Inc, USA) using a sigmoidal curve fitting procedure allowing for a variable hill slope.

human GPR40 receptor [2] = target: T1, human GPR40 receptor; assay: IP1 accumulation measurements using the IPOne assay system; assay type: cell-based; conditions: IP1 accumulation (IPOne HTRF), 1 hour stimulation; 1321N1 cells stably expressing human GPR40; read-out: EC50 values on GPR40 determined as described in (B)
Description: (B) IP1 accumulation measurements using the IPOne assay system—1321N1 cells stably expressing human GPR40 receptor (Euroscreen, Belgium) were seeded 24 h before the assay in black clear-bottom collagen-coated 384-well plates in culture medium containing 10% FCS, 1% Na-Pyruvate and 400 μg/mL G418. IP1 is assayed according to the Manufacturer's description (Cisbio Bioassays, France). In brief, the assay is started by substitution of the culture medium by stimulation buffer (Hepes 10 mM, CaCl2 1 mM, MgCl2 0.5 mM, KCl 4.2 mM, NaCl 146 mM and glucose 5.5 mM, pH 7.4) without LiCl. Cells are stimulated for 1 hour at 37°, 10% CO2 by addition of the compounds that were diluted in stimulation buffer containing LiCl yielding a final LiCl concentration of 50 mM. Assays are stopped by adding HTRF-conjugates (IP1-d2 and Anti-IP1 cryptate Tb) and lysis buffer, provided by the manufacturer. After an incubation time of 1 hour at room temperature plates are measured using an EnVision™, Perkin Elmer.

T1 sequence (O14842 whole entry): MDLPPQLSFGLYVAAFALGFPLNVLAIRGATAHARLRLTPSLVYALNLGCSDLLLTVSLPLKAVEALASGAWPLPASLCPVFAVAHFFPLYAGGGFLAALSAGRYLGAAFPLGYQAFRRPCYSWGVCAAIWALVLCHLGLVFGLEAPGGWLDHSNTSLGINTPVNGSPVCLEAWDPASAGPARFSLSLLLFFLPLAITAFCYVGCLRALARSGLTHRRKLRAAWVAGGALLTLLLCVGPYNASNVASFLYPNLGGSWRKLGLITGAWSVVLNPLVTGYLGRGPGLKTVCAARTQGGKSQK

Compound	EC50 (human GPR40 receptor [1]) [nM]	EC50 (human GPR40 receptor [2]) [nM]
O=C(O)CC1COc2cc(O[C@@H]3CCc4c(C5CCOCC5)cccc43)ccc21 (stereo partly drawn) [Example 12, {6-[(R)-4-(Tetrahydro-pyran-4-yl)-indan-1-yloxy]-2,3-dihydro-benzofuran-3-yl}-acetic acid]	459	2690
O=C(O)C[C@@H]1COc2cc(O[C@@H]3CCc4c(OC(F)F)cccc43)ccc21 [Example 17, {(S)-6-[(R)-4-Difluoromethoxy-indan-1-yloxy]-2,3-dihydro-benzofuran-3-yl}-acetic acid]	111	139
CC1(C)CCCC1c1cccc2c1CC[C@H]2Oc1ccc2c(c1)OCC2CC(=O)O (stereo partly drawn) [Example 16, {6-[(R)-4-(2,2-Dimethyl-cyclopentyl)-indan-1-yloxy]-2,3-dihydro-benzofuran-3-yl}-acetic acid]	3190	47
Cn1cc(-c2cccc3c2CC[C@H]3Oc2ccc3c(c2)OCC3CC(=O)O)cn1 (stereo partly drawn) [Example 7, {6-[(R)-4-(1-Methyl-1H-pyrazol-4-yl)-indan-1-yloxy]-2,3-dihydro-benzofuran-3-yl}-acetic acid]	710	2000
CC1(C)CCC=C1c1cccc2c1CC[C@H]2Oc1ccc2c(c1)OCC2CC(=O)O (mixture of isomers) [Example 15, {6-[(R)-4-(5,5-Dimethyl-cyclopent-1-enyl)-indan-1-yloxy]-2,3-dihydro-benzofuran-3-yl}-acetic acid]	3840	30
COC(c1cccc2c1CCC2Oc1ccc2c(c1)OCC2CC(=O)O)C(F)F (centres unmarked) [Example 11, {6-[4-(2,2-Difluoro-1-methoxy-ethyl)-indan-1-yloxy]-2,3-dihydro-benzofuran-3-yl}-acetic acid]	628	2230
COC(c1cccc2c1CCC2Oc1ccc2c(c1)OCC2CC(=O)O)C(C)(C)C (centres unmarked) [Example 13, {6-[4-(1-Methoxy-2,2-dimethyl-propyl)-indan-1-yloxy]-2,3-dihydro-benzofuran-3-yl}-acetic acid]	583	43
O=C(O)CC1COc2cc(OC3CCc4c3cccc4C(F)(F)F)ccc21 (mixture of isomers) [Example 1, [6-(4-Trifluoromethyl-indan-1-yloxy)-2,3-dihydro-benzofuran-3-yl]-acetic acid]	50	69
O=C(O)C[C@H]1COc2cc(O[C@H]3CCc4c3cccc4C(F)(F)F)ccc21 (single isomer, unassigned) [Example 2, [6-(4-Trifluoromethyl-indan-1-yloxy)-2,3-dihydro-benzofuran-3-yl]-acetic acid]	27	20
O=C(O)CC1COc2cc(O[C@@H]3CCc4c(Br)cccc43)ccc21 (mixture of isomers) [Example 6, {6-[(R)-4-Bromo-indan-1-yloxy]-2,3-dihydro-benzofuran-3-yl}-acetic acid]	49	62
COC(c1cccc2c1CCC2Oc1ccc2c(c1)OC[C@H]2CC(=O)O)C1CCC1 (stereo partly drawn) [Example 14, {(S)-6-[4-(Cyclobutyl-methoxy-methyl)-indan-1-yloxy]-2,3-dihydro-benzofuran-3-yl}-acetic acid]	364	125
O=C(O)C[C@H]1COc2cc(O[C@H]3CCc4c3cccc4C(F)(F)F)ccc21 (single isomer, unassigned) [Example 5, [6-(4-Trifluoromethyl-indan-1-yloxy)-2,3-dihydro-benzofuran-3-yl]-acetic acid]	2280	8990
O=C(O)CC1COc2cc(O[C@@H]3CCc4c(C5=CCOCC5)cccc43)ccc21 (stereo partly drawn) [Example 8, {6-[(R)-4-(3,6-Dihydro-2H-pyran-4-yl)-indan-1-yloxy]-2,3-dihydro-benzofuran-3-yl}-acetic acid]	312	1570
COc1ccc(-c2cccc3c2CC[C@H]3Oc2ccc3c(c2)OCC3CC(=O)O)cc1 (stereo partly drawn) [Example 10, {6-[(R)-4-(4-Methoxy-phenyl)-indan-1-yloxy]-2,3-dihydro-benzofuran-3-yl}-acetic acid]	333	178
CC(C)(O)C(F)(F)c1cccc2c1CC[C@H]2Oc1ccc2c(c1)OC[C@H]2CC(=O)O [Example 85, {(S)-6-[(R)-4-(1,1-Difluoro-2-hydroxy-2-methyl-propyl)-indan-1-yloxy]-2,3-dihydro-benzofuran-3-yl}-acetic acid]		3720
O=C(O)C[C@@H]1COc2cc(O[C@@H]3CCc4c(-c5cccnc5C(F)(F)F)cccc43)ccc21 [Example 73, {(S)-6-[(R)-4-(2-Trifluoromethyl-pyridin-3-yl)-indan-1-yloxy]-2,3-dihydro-benzofuran-3-yl}-acetic acid]		2720

Compound	EC50 (human GPR40 receptor [1]) [nM]	EC50 (human GPR40 receptor [2]) [nM]
Cc1cccc2cccc(-c3cccc4c3CC[C@H]4Oc3ccc4c(c3)OC[C@H]4CC(=O)O)c12 [Example 92, {(S)-6-[(R)-4-(8-Methyl-naphthalen-1-yl)-indan-1-yloxy]-2,3-dihydro-benzofuran-3-yl}-acetic acid]		7
O=C(O)C[C@@H]1COc2cc(O[C@@H]3CCc4c(C(F)(F)F)ccc(F)c43)ccc21 [Example 24, {(S)-6-[(R)-7-Fluoro-4-trifluoromethyl-indan-1-yloxy]-2,3-dihydro-benzofuran-3-yl}-acetic acid]		35
Cn1ccc(-c2cccc3c2CC[C@H]3Oc2ccc3c(c2)OCC3CC(=O)O)cc1=O (stereo partly drawn) [Example 9, {6-[(R)-4-(1-Methyl-2-oxo-1,2-dihydro-pyridin-4-yl)-indan-1-yloxy]-2,3-dihydro-benzofuran-3-yl}-acetic acid]	3250	> 10000
O=C(O)C[C@H]1COc2cc(O[C@H]3CCc4c3cccc4C(F)(F)F)ccc21 (stereo in doubt) [3/4, [6-(4-Trifluoromethyl-indan-1-yloxy)-2,3-dihydro-benzofuran-3-yl]-acetic acid]	186	501
O=C(O)C[C@@H]1COc2cc(O[C@@H]3CCc4c(-c5nccc6ccccc56)cccc43)ccc21 [Example 77, {(S)-6-[(R)-4-Isoquinolin-1-yl-indan-1-yloxy]-2,3-dihydro-benzofuran-3-yl}-acetic acid]		57
COc1ccc(C)c(-c2cccc3c2CC[C@H]3Oc2ccc3c(c2)OC[C@H]3CC(=O)O)c1C [Example 100, {(S)-6-[(R)-4-(3-Methoxy-2,6-dimethyl-phenyl)-indan-1-yloxy]-2,3-dihydro-benzofuran-3-yl}-acetic acid]		26
CC1(C)CCC[C@H]1c1cccc2c1CC[C@H]2Oc1ccc2c(c1)OC[C@H]2CC(=O)O (single isomer, unassigned) [Example 76]		95
O=C(O)C[C@@H]1COc2cc(O[C@@H]3CCc4ccc(C(F)(F)F)cc43)ccc21 [Example 19, {(S)-6-[(R)-6-Trifluoromethyl-indan-1-yloxy]-2,3-dihydro-benzofuran-3-yl}-acetic acid]		5190
CC(C)(C#N)c1cccc2c1CC[C@H]2Oc1ccc2c(c1)OC[C@H]2CC(=O)O [Example 97, {(S)-6-[(R)-4-(Cyano-dimethyl-methyl)-indan-1-yloxy]-2,3-dihydro-benzofuran-3-yl}-acetic acid]		171
COCC(F)(F)c1cccc2c1CC[C@H]2Oc1ccc2c(c1)OC[C@H]2CC(=O)O [Example 79, {(S)-6-[(R)-4-(1,1-Difluoro-2-methoxy-ethyl)-indan-1-yloxy]-2,3-dihydro-benzofuran-3-yl}-acetic acid]		288
CC1(C)CCCO[C@H]1c1cccc2c1CC[C@H]2Oc1ccc2c(c1)OC[C@H]2CC(=O)O (single isomer, unassigned) [Example 67]		176
O=C(O)C[C@@H]1COc2cc(O[C@@H]3CCc4c(-c5ccccc5C(F)(F)C(F)(F)F)cccc43)ccc21 [Example 94, {(S)-6-[(R)-4-(2-Pentafluoroethyl-phenyl)-indan-1-yloxy]-2,3-dihydro-benzofuran-3-yl}-acetic acid]		7
CC(C)(C)c1cccc2c1CC[C@H]2Oc1ccc2c(c1)OC[C@H]2CC(=O)O [Example 96, {(S)-6-[(R)-4-tert-Butyl-indan-1-yloxy]-2,3-dihydro-benzofuran-3-yl}-acetic acid]		36
O=C(O)C[C@@H]1COc2cc(O[C@@H]3CCc4c3cccc4N3CCOCC3)ccc21 [Example 65, {(S)-6-[(R)-4-Morpholin-4-yl-indan-1-yloxy]-2,3-dihydro-benzofuran-3-yl}-acetic acid]		1850
O=C(O)C[C@@H]1COc2cc(OC3CCc4ccccc43)ccc21 (some centres unmarked) [Example 43]		420
